Values quoted from earlier work in patent US20210196621A1, “ALCOHOL-FREE BOTANICAL ORAL CARE PRODUCTS” (The Trustees of Columbia University in the City of New York, priority 2018, published 2021).

How the values were obtained:
[1] = oral rinses, WO 2014/092999

| Compound | Synergistic activity with thymol and vanilla extract [1] | Synergism with botanical blend absent pomegranate extract (absent pomegranate extract) | Synergism with botanical blends containing pomegranate extract (blends containing pomegranate extract) |
| --- | --- | --- | --- |
| [H]/N=C(\N/C(=N/[H])NCCCCCCNC(=N)NC(=N)Nc1ccc(Cl)cc1)Nc1ccc(Cl)cc1 [chlorhexidine] | did not | did not show significant synergism | synergistically enhanced the antibacterial activity |
| PHMB | showed synergistic activity |  |  |
